Reference: article PMC5681922, “Systemic Responses of Multidrug-Resistant Pseudomonas aeruginosa and Acinetobacter baumannii Following Exposure to the Antimicrobial Peptide Cathelicidin-BF Imply Multiple Intracellular Targets” (Frontiers in Cellular and Infection Microbiology, 2017)
No end group written: not given here.

Tested on: P. aeruginosa 1409
Experiment: Membrane permeabilization assay (propidium iodide)
Assay type: cell-based, Pseudomonas aeruginosa
Conditions: 1 h at 25°C in LB, then PI 10 μg/mL 30 min, fluorescence microscope
Experimental: Then, PI was added to a final concentration of 10 μg/mL. After 30 min of incubation at 25°C, the cells were washed 3 times with PBS and immediately imaged with a fluorescence microscope (Olympus, Japan) (Yu et al., [2015]).
Figure 3 Bacterial plasma membrane permeabilization assay of cathelicidin-BF. Cathelicidin-BF and levofloxacin were incubated with MDR P. aeruginosa in Luria-Bertani medium at final concentrations of 4 × MIC (minimal inhibitory concentration) or ¼ × MIC. After incubation at 25°C for 1 h, bacteria were collected by centrifugation at 3,000 × g for 5 min and resuspended with PBS. The DNA-binding fluorescent dye PI was added to a final concentration of 10 μg/mL. After 30 min incubation at 25°C, the cells were washed 3 times with PBS and immediately imaged using a fluorescence microscope.

KFFRKLKKSVKKRAKEFFKKPRVIGVSIPF [cathelicidin-BF]
integrity of bacterial membranes, PI staining at 4 × MIC (4 × MIC (cathelicidin-BF 32 μg/mL, levofloxacin 64 μg/mL)): showed red fluorescence
integrity of bacterial membranes, PI staining at ¼ × MIC (¼ × MIC (cathelicidin-BF 2 μg/mL, levofloxacin 4 μg/mL)): no red dyes were detected
